Measured values as given in a melting point compilation (Tetko et al.; mined from patent text by program, amines drawn as free bases though some values may be those of a salt).

Compound | melting point [°C]
Cc1cc(C)c2c(=O)[nH]c(-c3cc(C)c(OCCN4CCCC4)c(C)c3)nc2c1 | 181 to 182
CC(C)(C)OC(=O)NC1CCCCCC=CC2CC2(C(=O)NS(=O)(=O)C2CC2)NC(=O)C2CC(OC(=O)c3ccc(Cl)cc3)CN2C1=O (stereo unspecified) | 143 to 145
Nc1ccc(F)c(-c2ccncc2)n1 | 189 to 190
COc1cccc(CN2CCc3cc(O)c(OC)cc3C2)c1 | 161 to 162
CCCCC(CC)COC(=O)C=CC(=O)NC(N)=O (stereo unspecified) | 73 to 76
O=c1c(-c2ccccc2)cc(Cl)c2n1C=CSc1ccsc1-2 | 149 to 151
O=C(NC1(C(=O)O)CCOCC1)OCc1ccccc1 | 110 to 115
CCOC(Cc1ccc(OCCN2CCSc3ccccc32)cc1)C(N)=O (stereo unspecified) | 120 to 122
COC(=O)CCCc1ccc(S(=O)(=O)Nc2ccc(Cl)cc2)cn1 | 80 to 81
O=C1Nc2ccc(NC(=O)C(=O)N3CCC(Cc4ccccc4)CC3)cc2C1=O | 234 to 236
COc1cc2c(cc1OC)CN(CCOc1ccc(NC(=O)c3cccc4c(=O)c5ccccc5[nH]c34)cc1)CC2 | 154
COc1cc(C(C)=O)ccc1OCCN1CCC(C(c2ccc(F)cc2)c2ccc(F)cc2)CC1 | 129 to 131
CNC(=O)CC1CN=C(c2cc3cc(Oc4ccc(S(C)(=O)=O)nc4)cc(OC4CCOCC4)c3[nH]2)S1 (stereo unspecified) | 143 to 144
CCOC(=O)c1ccc(NCc2cc(Br)ccc2OCc2ccccc2)c(OC)c1 | 78
O=C1C(CCC(O)c2ccc(F)cc2)C(c2ccc(-c3ccc(C4OC(CO)C(O)C(O)C4O)cc3)cc2O)N1c1ccccc1 (stereo unspecified) | 152 to 160
COc1ccc(C2CN(S(=O)(=O)c3ccc(C)cc3)Cc3ccccc32)c(CO)c1OC (stereo unspecified) | 162 to 164
C[Si](C)(CCO)Cc1ccccc1 | 132 to 133
CCOC(=O)CC(c1cccnc1)N1CCN(CCCOc2ccc(C#N)cc2)C(=O)C1=O (stereo unspecified) | 110 to 112
Cc1ccc(S(=O)(=O)N2CC(CO)(CO)C2)cc1 | 148 to 150
CCN(CC)C(=O)c1ccc(C(c2cccc(O)c2)N2CC(C)N(CC#N)CC2C)cc1 (stereo unspecified) | 190 to 192
O=C(C1CC1)N1CC[C@@H](Oc2ccc(F)cc2)[C@H](c2ccccc2)C1 (relative stereo) | 113 to 115
COc1cc(CC(=O)NCCCc2ccc(C)c(C)c2)ccc1OCCNCCO | 76 to 79
COc1cc(Br)nc2[nH]cc(-c3ccnc(N)n3)c12 | > 210
CCCCCCCCOc1ccc(-c2ccc(NC(=O)N(O)C(CC)CC)cc2)cc1 | 151 to 152
Oc1cc2c(cc1CCCCSc1cccnc1)OCC2 | 130 to 131
COC(=O)CCC/C=C(\c1cc(F)cc(C(F)(F)F)c1)c1cc(C)c2on(C)c(=O)c2c1 | 97.5 to 98.5

Compound | melting point [°C]
C=Cc1c(C#N)nn(-c2c(Cl)cc(C(F)(F)F)cc2Cl)c1Cl | 69.8 to 70.4
CCOC(=O)CN(SN(C)C(=O)Oc1cccc2c1OC(C)(C)C2)c1ccccc1 | 92 to 93
COC(=O)CC1CCc2cc(OC)ccc2C1=O (stereo unspecified) | 110 to 112
CN1CCN(c2cccc3c2C[C@H](NC(=O)c2ccc(F)cc2)CC3)CC1 | 189 to 190
CN(CCc1c[nH]c2ccc(CNS(C)(=O)=O)cc12)C(=O)OCc1ccccc1 | 118 to 120
O=C(OCC(O)CO)c1ccc(C=Cc2csc3ccccc23)s1 (stereo unspecified) | 102 to 104
C[Si](C)(C)c1ccc(F)c([Si](C)(C)C)c1C(=O)N1CCCC1 | 97 to 100
O=c1c(-c2cccc(C(F)(F)F)c2Cl)nn(CCCCC(F)(F)F)c2cccc(Cl)c12 | 137 to 138
COc1ccc(CN2CC(C(=O)O)CC2=O)cc1OC (stereo unspecified) | 176 to 178
O=C(O)C(C1CC(=O)N(C(=O)OCC(Cl)(Cl)Cl)O1)N1C(=O)c2ccccc2C1=O (stereo unspecified) | 208 to 210
COc1cc(C(C)C)ccc1C1(O)C(=O)c2cccc(N)c2C1=O (stereo unspecified) | 219 to 220
Oc1ccc2c(c1)CC(CCc1ccccc1)O2 (stereo unspecified) | 56 to 58
O=C1c2ccccc2C(=O)N1Cc1cc2cc(Cl)cc(Br)c2o1 | 194 to 198
O=C(C(Cl)=Cn1ccnc1)c1ccc(Cl)cc1Cl | 149 to 151
N#Cc1cc(=O)c2c(o1)c1ccccc1n2-c1ccccc1 | 192 to 193
O=C(O)CCCCCc1cnc2ccccc2c1 | 129 to 131
Cc1cc(-n2cccn2)c2cccc(OCc3c(Cl)ccc(S(=O)(=O)N4CCC[C@H]4C(=O)O)c3Cl)c2n1 | 148
CC(C)OC(=O)Cn1c(=O)n(C)c(=O)n(-c2cc(N=c3sc(=S)n4n3CCCCC4)c(F)cc2Cl)c1=O | 108 to 118
O=C1C(c2cccc(Br)c2)n2cncc2CN1Cc1ccccn1 (stereo unspecified) | 52 to 56
COC(=O)N=C(N)OC | 36 to 39.5
Cc1cc(C#N)c(C)c(C(=O)Nc2ccn(C)n2)n1 | 180
NCCc1cn(S(=O)(=O)c2ccccc2Cl)c2cccnc12 | 106 to 108
CC(=O)OC(CCc1cc2cccnc2n(-c2cccc([N+](=O)[O-])c2)c1=O)c1ccncc1 (stereo unspecified) | 69 to 71
FC(F)(F)c1cc(-c2ccc(Cl)c(Cl)c2)nc2ccnn12 | 130 to 131
CC1(C)CCc2ccc(Oc3ccc(N)cn3)cc2O1 | 93 to 94
Cc1cc(-c2cc(COS(C)(=O)=O)c(=O)n(CC(C)C)n2)ccc1F | 115 to 117

Compound | melting point [°C]
CC(=O)Nc1ncc(CCc2ccc(N)cc2)s1 | 218 to 220
COc1c([N+](=O)[O-])cc(C=O)c(Cl)c1O | 130
COc1cc(C(O)c2ccnc3ccccc23)ccc1OCc1ccccc1 (stereo unspecified) | 117 to 118
CCc1cccc(CC)c1NC(=O)NC1(c2ccccc2)CCC1 | 227 to 230
Cc1cc(CO)oc1CN(C)C | 104 to 106
CN1CCC(=C2c3ccccc3CC(=O)c3ccccc32)CC1 | 138 to 140
CCOC(=O)N1CCC(Nc2nc3ccccc3[nH]2)CC1 | 231 to 233
CCCCc1nc2c(N)nc3c(c2n1CC(C)C)CCNC3 | 164 to 166
O=Cc1c2ccccc2cc2cc(Cl)ccc12 | 122 to 124
COc1c(F)cc2c(c1F)CC(n1cc[nH]c1=S)CC2 (stereo unspecified) | 228 to 230
Clc1ccc2c(c1)CNc1ccccc1C2 | 132 to 135
CCOC(=O)C1(C)ON=C(C2(C)CC(c3ccc(OC)c(OC4CCCC4)c3)=NO2)O1 (stereo unspecified) | 139 to 140
NC(C(=O)OC1CCCCC1)C(=O)OC1CCCCC1 | 46 to 47
O=C(O)C1=CN(C2CC2)C(c2ccc3c(c2)OCO3)CC1=O (stereo unspecified) | 122 to 124
COCc1cnc2c(NC(=O)c3c(Cl)cccc3Cl)cc(C)cc2c1Cl | 156 to 158
Cc1ccc2c(c1)c(N1CCN(C(=O)c3cccs3)CC1)c(C#N)c(=O)n2Cc1ccccc1 | 183
CCC(O)(C(=O)NC(C)c1ccccc1)c1cc2n(c(=O)c1CO)CCC21OCCO1 (stereo unspecified) | 115 to 116
CCCc1nc(NC(C)=O)nc(N2CCOCC2)n1 | 141 to 142
O=C(c1nc(-c2ccccc2)nc2ccccc12)N1CCCC(CO)C1 (stereo unspecified) | 142
CCC1(CC)C(=O)N(C(C)(C)C)CC(C)(C)N1OC(C)c1ccc(CCl)cc1 (stereo unspecified) | 66 to 68
COC(=O)NN=Cc1ccc([N+](=O)[O-])cc1 | 212 to 213
O=C1CN=C(c2ccccc2Cl)c2ccsc2N1 | 221 to 223
CS(=O)(=O)Nn1c(=O)[nH]c2cc([N+](=O)[O-])c(N3CCOCC3)cc2c1=O | > 260
COc1cc2c(cc1OC)C(=O)C(=CC=Cc1ccc(N(C)C)cc1)C2 | 210 to 213
CC(C)c1c(Cl)nc(Cl)nc1Cl | 69.4
O=C1c2ccccc2C(=O)N1CCCSc1ncccn1 | 81.5 to 82.5

Compound | melting point [°C]
COc1cc2c(O)c(S(=O)(=O)N(C)C)cnc2cc1C | 295 to 297
N=C(N)Nc1nc(Cl)cc(Cl)n1 | > 360
COc1ccc(NC=C2C(=O)OC(=O)c3cc4cccc(C)c4nc32)cc1OC | 280 to 281
O=c1nc(-c2cccc(C(F)(F)F)c2)sc2ccccc12 | 115
CC(=O)C1(c2ccccc2)CCN(C(=O)OC(C)(C)C)CC1 | 91 to 92
COC[C@@H]1CCCN1S(=O)(=O)c1ccc(Cl)c(COc2cccc3c(-n4ccnc4)cc(C)nc23)c1Cl | 66
CCOC(=O)Nc1ccc(OCCCCl)cc1 | 91 to 93
CCN(CC)c1ccc(N)cc1C#N | 63 to 66
CC(C)CN(CC(O)C(Cc1ccccc1)NC(=O)C(CC(N)=O)NC(=O)c1ccc2ccccc2n1)C(=O)NC(C)(C)C (stereo unspecified) | 107 to 110
Oc1c2c(nn1-c1nc3ccccc3s1)CCc1ccccc1-2 | 234 to 235
Cc1cc(OC(F)F)nc(S(C)(=O)=O)n1 | 86 to 88
O=C(O)c1csc2c(=O)cc(C(F)(F)F)oc12 | 249 to 251
CONC(=O)N1N=C(c2ccc([N+](=O)[O-])c(C)c2)c2cc3c(cc2CC1C)OCO3 (stereo unspecified) | 192 to 195
O=S1(=O)N(CCCN2CC=C(c3c[nH]c4ccc(F)cc34)CC2)c2cccc3c2N1CCC3 | 178
CC(C)(C)c1ccc(SC(CCl)S(=O)(=O)c2ccccc2)cc1 (stereo unspecified) | 67 to 69
Cc1nnc(NCCN2CCC(Nc3nc4ccccc4n3Cc3ccc(F)cc3)CC2)s1 | 191
COC(=O)c1cc(OC)c(OC)c2c1C=CCO2 | 88.5 to 90
O=C(CCC1CCCCC1)NC1N=C(c2ccccc2)c2ccccc2-n2c1noc2=O (stereo unspecified) | 226
Cc1ccc(C2=Cc3cc(C(=O)Nc4ccc(CN(C)C5CCOCC5)cc4)ccc3OC2)cc1 | 230 to 235
CC(=O)c1cc(Cl)ccc1NS(=O)(=O)C(F)(F)F | 36 to 38
CCCCCN=C1SC(=CC(=O)O)C(=O)N1CCCCC | 85 to 88
NC1=NC(c2cccc(Oc3ccccc3)c2)N(c2cccc(Cc3ccccc3)c2)C(N)=N1 (stereo unspecified) | 165 to 167
NS(=O)(=O)c1c(Cl)cccc1-c1ccccc1 | 185 to 187
